US7410767B1, “HLA-E binding” (Isis Innovation Limited, priority 1997, dated 2008)
Like-named read-outs stand apart in the source and are kept apart here. No end group written: not given here.

Biological target: HLA-E (Homo sapiens, UniProt P13747, G128R)
Test: in vitro peptide binding assay to HLA-E
From the text: Whatever form of HLA-E is used, a suitable peptide for binding in the HLA-E peptide groove will be required. […] Other peptides which bind to HLA-E may be used, for example peptides from viral proteins which may be the same as or different to MHC class I leader sequence peptides. […] A suitable assay for identifying synthetic peptides which bind to HLA-E is described in Braud et al 1997 Eur. J. Immunol. 27:1164-1169.

[1] = in vitro peptide binding assay, ratio of optical densities, read-out: Concentration of peptide required to obtain 50% of binding to HLA-E

Molecule | EC50 [nM] | EC50 [1] [nM]
CSCC[C@H](NC(=O)[C@@H](N)C(C)C)C(=O)N[C@@H](C)C(=O)N1CCC[C@H]1C(=O)N[C@@H](CCCNC(=N)N)C(=O)N[C@H](C(=O)N[C@@H](CC(C)C)C(=O)N[C@@H](CC(C)C)C(=O)N[C@@H](CC(C)C)C(=O)O)[C@@H](C)O | 300 | 
CSCC[C@H](NC(=O)[C@@H](N)C(C)C)C(=O)N[C@@H](C)C(=O)N1CCC[C@H]1C(=O)N[C@@H](CCCNC(=N)N)C(=O)N[C@H](C(=O)N[C@@H](CC(C)C)C(=O)N[C@H](C(=O)N[C@@H](CC(C)C)C(=O)O)C(C)C)[C@@H](C)O |  | 60
CSCC[C@H](NC(=O)[C@@H](N)C(C)C)C(=O)N[C@@H](C)C(=O)N1CCC[C@H]1C(=O)N[C@@H](CCCNC(=N)N)C(=O)N[C@H](C(=O)N[C@H](C(=O)N[C@@H](CC(C)C)C(=O)N[C@@H](CC(C)C)C(=O)O)C(C)C)[C@@H](C)O |  | 60
CC(C)C[C@H](NC(=O)[C@H](CC(C)C)NC(=O)[C@@H](NC(=O)[C@@H](NC(=O)[C@H](CCCNC(=N)N)NC(=O)[C@@H]1CCCN1C(=O)[C@H](C)NC(=O)[C@@H](NC(=O)[C@@H](N)C(C)C)[C@@H](C)O)[C@@H](C)O)C(C)C)C(=O)O |  | > 100000
VTAPRTLLL |  | > 100000
